# Source: publication PMC12376232 (Journal of the Colleges of Medicine of South Africa, 2023)
# Experiments:
# [1] = tested on: rodents; settings: in vivo
# [2] = tested on: benign thyroid diseases; assay: I-131 therapy of benign thyroid diseases, retrospective analysis; type: in vivo; settings: 127 patients
# Protocol: A retrospective analysis was carried out for patients with benign thyroid conditions who underwent single or double I-131 therapy for benign thyroid disease at our department between January 2009 and December 2021. The thyroid function status of the patients was also documented prior to discharge.
smiles,measurement,setting,value
"CC(C)c1cccc(C(C)C)c1O [Propofol, propofol]",effect on glucose metabolism,[1],decreased cerebral glucose metabolism
"CCCC(C)C1(CC)C(=O)NC(=O)NC1=O (stereo not drawn) [Pentobarbital, pentobarbital]",effect on glucose metabolism,[1],does not alter the blood glucose metabolism
same,safety margin for rodent anaesthesia,[1],lower safety margin
FCOC(C(F)(F)F)C(F)(F)F [sevoflurane],effect on glucose metabolism,[1],induced hypoglycaemia
[131IH] [RAI],patients who required retreatment as they remained hyperthyroid,"[2]; after single RAI therapy, n = 33",26%
same,patients who responded to the single RAI therapy (euthyroid or hypothyroid),"[2]; empirical dose 10 mCi to 40 mCi, n = 94",Seventy-four per cent
same,patients euthyroid on discharge,"[2]; single or double I-131 therapy, n = 40",31%
same,patients hypothyroid on discharge,"[2]; single or double I-131 therapy, n = 83",66%
FC(F)OC(Cl)C(F)(F)F (stereo not drawn) [isoflurane],effect on glucose metabolism,[1],induced hypoglycaemia
